In patent US20130344065A1, “Combination Treatment with VEGF-C Antagonists” (Vegenics Pty Ltd, priority 2010, published 2013):
Entries after “also recorded” stand apart in the source; their conditions may differ.

Columns and labels:
[1] = biological target: T1, VEGF-C binding to the extracellular domain of VEGFR-3 (Homo sapiens, UniProt P49767); assay: Ba/F3-VEGFR-3/EpoR bioassay of VEGF-C binding; assay type: cell-based; details: [3H]thymidine incorporation, 48 hrs
T1 construct: expressed in transfected cells; host or cells: Ba/F3 cells (BA/F3-VEGFR-3/EpoR)
T1 sequence (P49767 112-227 limits assumed): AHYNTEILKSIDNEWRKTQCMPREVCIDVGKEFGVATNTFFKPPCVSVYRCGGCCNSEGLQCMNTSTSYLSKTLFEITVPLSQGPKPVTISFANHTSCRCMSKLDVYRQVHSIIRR
Description: The binding of VEGF-C to the extracellular domain of VEGFR-2 or VEGFR-3 was measured using BA/F3-VEGFR-2 or -3/EpoR cells. The response to ligands and VGX-100 was measured by [^3H]-thymidine incorporation following exposure for 48 hrs.
Bioassays to measure the binding of VEGF-C to the extracellular domain of VEGFR-2 or VEGFR-3 were performed with BA/F3-VEGFR-2 or BA/F3-VEGFR-3/EpoR cells. The response to ligands and VGX-100 was measured by [^3H] thymidine incorporation following exposure for 48 hrs.

[2] = system: PC-3 human prostate tumors (xenograft); assay: Subcutaneous PC-3 xenograft, single therapy (Example 2); assay type: in vivo, nude mice
Description: Cells were implanted into 80 mice. […] The treatment with drugs began on the day after randomization. […] At the end of the experiment, statistical analysis was performed on the tumor growth rate of each treatment group versus that of the control.

[3] = system: U87MG human glioblastoma tumors; assay: U87MG glioblastoma xenograft, combination (Example 7); assay type: in vivo, nude mice; details: VGX-100 40 mg/kg, bevacizumab 10 mg/kg, administered alone
Description: This experiment was conducted broadly in accordance with Example 3, except that U87MG glioblastoma cells were substituted for PC-3 prostate cancer cells. Cells from a human glioblastoma tumor line (U87MG) were implanted subcutaneously into mice and grown until the tumors reached an average size of approximately 150 mg. […] There were 10 animals per treatment group.

## VGX-100: VEGF-C antibody; heavy chain SEQ ID NO: 3, light chain SEQ ID NO: 4
[1]
  Blocking of VEGF-C binding to VEGFR-3: blocked VEGF-C binding
[2]; VGX-100 40 mg/kg IP twice weekly, 40 mg/kg
  Tumor volume response: significant single-agent activity; also recorded: efficacy equivalent to bevacizumab at 10 mg/kg
[2]; VGX-100 10 and 20 mg/kg IP twice weekly
  Tumor volume response: improved over the negative control
[3]
  Effect on tumor growth: no significant effect
